According to ChEMBL document CHEMBL1141445, “Rhizochalins C and D from the sponge Rhizochalina incrustata. A rare threo-sphingolipid and a facile method for determination of the carbonyl position in alpha,omega-bifunctionalized ketosphingolipids” (2007):
pEC50: −log10 of the molar value.

System: Nakaseomyces glabratus
Test: Antifungal activity against fluconazole-resistant Candida glabrata
Assay type: functional
Details: read-out: ED50 (the source's name)

| Structure (SMILES) | pEC50 |
| --- | --- |
| CC1[C@@H](CO)O[C@@H](O[C@H](CCCCCCCC(=O)CCCCCCCCCCCCCC[C@@H](O)[C@@H](C)N)[C@@H](N)CO)[C@H](O)[C@H]1O (some centres undefined) [OCEANAPISIDE] | 4.40 |
| C[C@@H](N)[C@H](O)CCCCCCCCC(=O)CCCCCCCCCCCCCC[C@@H](O[C@@H]1O[C@H](CO)[C@H](O)[C@H](O)[C@H]1O)[C@@H](C)N [RHIZOCHALIN D] | < 3.82 |
| C[C@@H](N)[C@H](O)CCCCCCCC(=O)CCCCCCCCCCCCCC[C@@H](O[C@@H]1O[C@H](CO)[C@H](O)[C@H](O)[C@H]1O)[C@H](N)CO [RHIZOCHALIN C] | < 3.82 |
| C[C@@H](N)[C@H](O)CCCCCCCC(=O)CCCCCCCCCCCCCC[C@@H](O[C@@H]1O[C@H](CO)[C@H](O)[C@H](O)[C@H]1O)[C@@H](C)N [RHIZOCHALIN] | 4.40 |
